pKi: −log10 of the molar value.

The first experiment deals with T1, ETB receptor (Sus scrofa, UniProt P35463).
T1 construct: The plasma membrane of porcine lung (2 mg of protein); from tissue; host or cells: porcine lung plasma membrane
T1 sequence (P35463 27-443): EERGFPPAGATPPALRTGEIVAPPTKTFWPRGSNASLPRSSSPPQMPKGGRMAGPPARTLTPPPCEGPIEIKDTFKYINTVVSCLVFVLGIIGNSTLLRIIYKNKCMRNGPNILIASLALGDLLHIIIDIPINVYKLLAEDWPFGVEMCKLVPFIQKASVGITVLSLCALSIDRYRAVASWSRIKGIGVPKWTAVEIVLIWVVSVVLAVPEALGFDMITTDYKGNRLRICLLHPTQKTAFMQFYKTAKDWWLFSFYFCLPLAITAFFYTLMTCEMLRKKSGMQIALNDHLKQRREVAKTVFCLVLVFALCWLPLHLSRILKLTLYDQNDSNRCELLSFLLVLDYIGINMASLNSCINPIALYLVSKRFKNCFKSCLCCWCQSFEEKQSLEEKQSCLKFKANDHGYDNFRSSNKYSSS
The experiment is described as follows: Endothelin (ET) receptor binding assay, ETB receptor. The settings on record: [^125 I]ET-3 alone; porcine lung plasma membrane; 37° C., 1 hour, pH 7.4. The procedure:
Endothelin (ET) receptor binding assay
(§1) After the incubation, unbound [^125 I]ETs were separated by centrifugation at 20,000×g for 20 min at 4° C. followed by aspiration of the supernatant. The radioactivity in the membrane pellet is measured in Wallac-1470 Wizard autogamma counter (Pharmacia). Nonspecific binding is defined as membrane-associated radioactivity in the presence of saturating concentrations of ETs (100 nM). Nonspecific binding is subtracted from the total binding and the difference is defined as specific binding.
A word on the pKi: it is the Ki on a negative log10 scale, so that one unit is a factor of ten. The compound `Cc1cc(C)cc(C(=O)N(C)[C@H](Cc2ccc(O)cc2)C(=O)NC(Cc2c[nH]c3ccccc23)C(=O)NS(=O)(=O)c2ccccc2)c1` (some centres unmarked) [7(9), N-benzenesulfonyl-[N-(3,5-dimethylbenzoyl)-N-methyl-3-(4-hydroxyphenyl)-(D)-alanyl]-(D,L)-tryptophanamide] gave a pKi of 8.64.

The compound `CCCCS(=O)(=O)NC(=O)[C@@H](NC(=O)C(Cc1ccc(-c2ccno2)cc1)N(C)C(=O)c1cc(C)cc(C)c1)[C@@H](C)CC` (some centres unmarked) [10(a), N-butanesulfonyl-[N-(3,5-dimethylbenzoyl)-N-methyl-3-[4-(5-isoxazolyl)-phenyl]-(D,L)-alanyl]-(L)-isoleucineamide] gave a pKi of 8.46.

The compound `Cc1cc(C)cc(C(=O)N(C)[C@H](Cc2ccc(-c3ccccc3)cc2)C(=O)NC(Cc2c[nH]c3ccccc23)C(=O)NS(=O)(=O)c2ccccc2)c1` (some centres unmarked) [Example 1, N-benzenesulfonyl-[N-(3,5-dimethylbenzoyl)-N-methyl-3-(biphenyl-4-yl)-(D)-alanyl]-(D,L)-tryptophanamide] showed a pKi of 9.05.

`Cc1cc(C)cc(C(=O)N(C)[C@H](Cc2ccc(-c3ccsc3)cc2)C(=O)NC(Cc2c[nH]c3ccccc23)C(=O)NS(=O)(=O)c2cccs2)c1` (some centres unmarked) [Example 2, N-(2-thienyl)sulfonyl-[N-(3,5-dimethylbenzoyl)-N-methyl-(D)-3-[4-(3-thienyl)phenyl]-alanyl]-(D,L)-tryptophanamide]: the pKi was 9.52.

In turn, `Cc1cc(C)cc(C(=O)N(C)[C@H](Cc2ccc(-c3ccno3)cc2)C(=O)NC(Cc2c[nH]c3ccccc23)C(=O)NS(=O)(=O)c2ccccc2)c1` (some centres unmarked) [Example 6] gave a pKi of 9.47.

On to `CCCCS(=O)(=O)NC(=O)[C@H](Cc1c[nH]c2ccccc12)NC(=O)C(Cc1ccc(-c2ccno2)cc1)N(C)C(=O)c1cc(C)cc(C)c1` (some centres unmarked) [Example 8, N-butanesulfonyl-[N-(3,5-dimethylbenzoyl)-N-methyl-3-[4-(5-isoxazolyl)-phenyl]-(D,L)-alanyl]-(L)-tryotophanamide], for which the pKi was 9.62.

`C=CCS(=O)(=O)NC(=O)[C@H](Cc1c[nH]c2ccccc12)NC(=O)C(Cc1ccc(-c2ccno2)cc1)N(C)C(=O)c1cc(C)cc(C)c1` (some centres unmarked) [Example 9, N-(2-propene)sulfonyl-[N-(3,5-dimethylbenzoyl)-N-methyl-3-[4-(5-isoxazolyl)-phenyl]-(D,L)-alanyl]-(L)-tryptophanamide] showed a negative logarithm of the Ki (pKi) of 9.64.

In turn, `CCCCS(=O)(=O)NC(=O)[C@@H](NC(=O)C(Cc1ccc(-c2ccno2)cc1)N(C)C(=O)c1cc(C)cc(C)c1)C(C)C` (some centres unmarked) [Example 11, N-butanesulfonyl-[N-(3,5-dimethylbenzoyl)-N-methyl-3-[4-(5-isoxazolyl)-phenyl]-(D,L)-alanyl]-(L)-valineamide] showed a pKi of 8.92.

For `CCCCS(=O)(=O)NC(=O)[C@H](Cc1c[nH]c2ccccc12)NC(=O)C(Cc1ccc(-n2cncn2)cc1)N(C)C(=O)c1cc(C)cc(C)c1` (some centres unmarked) [Example 12, N-butanesulfonyl-[N-(3,5-dimethylbenzoyl)-N-methyl-3-[4-(1,2,4-triazol-1-yl)-phenyl]-(D,L)-alanyl]-(L)-tryptophanamide], the negative-log Ki (pKi) is 9.80.

As for `CCCCS(=O)(=O)NC(=O)[C@H](Cc1c[nH]c2ccccc12)NC(=O)C(Cc1ccc(-n2ccnn2)cc1)N(C)C(=O)c1cc(C)cc(C)c1` (some centres unmarked) [Example 13, N-butanesulfonyl-[N-(3,5-dimethylbenzoyl)-N-methyl-3-[4-(1,2,3-triazol-1-yl)-phenyl]-(D,L)-alanyl]-(L)-tryptophanamide], the pKi was 9.57.

In a further experiment the target is T1, ETB receptor. The experiment is described as follows: Scatchard analysis of radioligand binding, ETB receptor. To be noted: porcine lung plasma membrane, [^125 I]ET-3 alone. The procedure: as §1, with “binding. Total binding is always less than 15% of the total radioactivity added. […] From the inhibition curves for the binding of [^125 I]ETs, the apparant binding affinity constant (Ki) of one of the test compounds is calculated as a parameter of the affinity for the ETA and ETB receptors, as shown in the following table.” for “binding.”
Regarding “[^125 I]ET-3: radiolabelled endothelin-3 purchased from Amersham International; ETs are vasoactive peptides with 21 amino acid residues”, the Bmax is 362 fmol/mg protein.
